Assay [1] has as its system HCV genotype 1a (H77 strain) replicon in HUH-7 cells. As to the kind of experiment: HCV replicon luciferase reporter assay, genotype 1a. Format: cell-based. Conditions: Hepatitis C virus, Huh-7, 72 h, HCV genotype 1a replicon luciferase, 3 days incubation, read-out: LE_1a (EC50, range). In outline: (§1)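 Replicon inhibition for both genotypes was measured as Renilla luciferase signal (EnduRen, 7.5 μM final, 2 h) after 3-day, 37° C exposure of replicon-bearing HUH-7 cells in 4% FCS DMEM, 0.5% DMSO. The 1b construct carries S1179I; the 1a H77 construct carries P1496L and S2204I. Twenty-point, 3-fold dilutions were fitted four-parametrically for EC50, and CC50 was taken from multiplexed Cell Titer-Blue.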

For assay [2], the system named is HCV genotype 1b (Con1) replicon in HUH-7 cells. The assay is described as follows: HCV replicon luciferase reporter assay, genotype 1b. Conditions: Hepatitis C virus, Huh-7, 72 h, HCV genotype 1b replicon luciferase, 3 days incubation, read-out: LE_1b (EC50, range). Format: cell-based. In outline:
as §1

Structures are written as SMILES. pEC50: −log10 of the molar value.

As usually defined, the pEC50 is −log10 of the EC50, conventionally taken in molar units.

For `CC[C@@H]1C[C@H](C)CC/C=C\[C@@H]2C[C@@]2(C(=O)NS(=O)(=O)C2(C)CC2)NC(=O)[C@@H]2C[C@@H](Oc3nc4c(c5cc(OC)ccc35)CCCO4)CN2C(=O)[C@H]1NC(=O)OC(C)(C)C(F)F` [Compound 6092, 1,1-difluoro-2-methylpropan-2-yl((2R,6S,7R,9R,13aS,14aR,16aS,Z)-7-ethyl-2-((9-methoxy-2,3-dihydro-1H-pyrano[2,3-c]isoquinolin-6-yl)oxy)-9-methyl-14a-(((1-methylcyclopropyl)sulfonyl)carbamoyl)-5,16-dioxo-1,2,3,5,6,7,8,9,10,11,13a,14,14a,15,16,16a-hexadecahydrocyclopropa[e]pyrrolo[1,2-a][1,4]diazacyclopentadecin-6-yl)carbamate], the pEC50 in assay [1] and in assay [2] was 8.30 to 9.00 each time.

Regarding `CC[C@@H]1C[C@H](C)CC/C=C\[C@@H]2C[C@@]2(C(=O)NS(=O)(=O)C2(C)CC2)NC(=O)[C@@H]2C[C@@H](Oc3nc4c(c5cc(OC)ccc35)CCCO4)CN2C(=O)[C@H]1NC(=O)OC(C)(C)C(F)(F)F` [Compound 6095, 1,1,1-trifluoro-2-methylpropan-2-yl((2R,6S,7R,9R,13aS,14aR,16aS,Z)-7-ethyl-2-((9-methoxy-2,3-dihydro-1H-pyrano[2,3-c]isoquinolin-6-yl)oxy)-9-methyl-14a-(((1-methylcyclopropyl)sulfonyl)carbamoyl)-5,16-dioxo-1,2,3,5,6,7,8,9,10,11,13a,14,14a,15,16,16a-hexadecahydrocyclopropa[e]pyrrolo[1,2-a][1,4]diazacyclopentadecin-6-yl)carbamate], the pEC50 in assay [1] is 9.00 to 9.29; in assay [2] it was 9.30 to 10.00.

As to `CC(C)Oc1cc2ccccc2c(O[C@@H]2C[C@H]3C(=O)N[C@]4(C(=O)NS(=O)(=O)C5(C)CC5)C[C@H]4/C=C\CC[C@@H](C)C[C@@H](C)[C@H](NC(=O)OC(C)(C)C)C(=O)N3C2)n1` [Compound 6098, tert-butyl ((2R,6S,7R,9R,13aS,14aR,16aS,Z)-2-((3-isopropoxyisoquinolin-1-yl)oxy)-7,9-dimethyl-14a-(((1-methylcyclopropyl)sulfonyl)carbamoyl)-5,16-dioxo-1,2,3,5,6,7,8,9,10,11,13a,14,14a,15,16,16a-hexadecahydrocyclopropa[e]pyrrolo[1,2-a][1,4]diazacyclopentadecin-6-yl)carbamate], the values for the pEC50 in assay [1] and in assay [2] were 9.00 to 9.29 and 9.30 to 10.00, respectively.

As for `CCOc1cc2ccccc2c(O[C@@H]2C[C@H]3C(=O)N[C@]4(C(=O)NS(=O)(=O)C5(C)CC5)C[C@H]4/C=C\CC[C@H](C)C[C@@H](C)[C@H](NC(=O)OC(C)(C)C(F)(F)F)C(=O)N3C2)n1` [Compound 6099, 1,1,1-trifluoro-2-methylpropan-2-yl((2R,6S,7R,9S,13aS,14aR,16aS,Z)-2-((3-ethoxyisoquinolin-1-yl)oxy)-7,9-dimethyl-14a-(((1-methylcyclopropyl)sulfonyl)carbamoyl)-5,16-dioxo-1,2,3,5,6,7,8,9,10,11,13a,14,14a,15,16,16a-hexadecahydrocyclopropa[e]pyrrolo[1,2-a][1,4]diazacyclopentadecin-6-yl)carbamate], the pEC50 in assay [1] and in assay [2] was 8.30 to 9.00 each time.

As to `CCOc1cc2ccccc2c(O[C@@H]2C[C@H]3C(=O)N[C@]4(C(=O)NS(=O)(=O)C5(C)CC5)C[C@H]4/C=C\CC[C@@H](C)C[C@@H](C)[C@H](NC(=O)OC(C)(C)C(F)(F)F)C(=O)N3C2)n1` [Compound 6100, 1,1,1-trifluoro-2-methylpropan-2-yl((2R,6S,7R,9R,13aS,14aR,16aS,Z)-2-((3-ethoxyisoquinolin-1-yl)oxy)-7,9-dimethyl-14a-(((1-methylcyclopropyl)sulfonyl)carbamoyl)-5,16-dioxo-1,2,3,5,6,7,8,9,10,11,13a,14,14a,15,16,16a-hexadecahydrocyclopropa[e]pyrrolo[1,2-a][1,4]diazacyclopentadecin-6-yl)carbamate], the pEC50 in assay [1] was 8.30 to 9.00; in assay [2] it was 9.30 to 10.00.

For the compound `CCOc1cc2ccccc2c(O[C@@H]2C[C@H]3C(=O)N[C@]4(C(=O)NS(=O)(=O)C5(C)CC5)C[C@H]4/C=C\CC[C@@H](C)C[C@@H](C)[C@H](NC(=O)OC(C)(C)C(C)(F)F)C(=O)N3C2)n1` [Compound 6102, 3,3-difluoro-2-methylbutan-2-yl((2R,6S,7R,9R,13aS,14aR,16aS,Z)-2-((3-ethoxyisoquinolin-1-yl)oxy)-7,9-dimethyl-14a-(((1-methylcyclopropyl)sulfonyl)carbamoyl)-5,16-dioxo-1,2,3,5,6,7,8,9,10,11,13a,14,14a,15,16,16a-hexadecahydrocyclopropa[e]pyrrolo[1,2-a][1,4]diazacyclopentadecin-6-yl)carbamate], the pEC50 is 9.00 to 9.29 in assay [1] and 9.30 to 10.00 in assay [2].

Take `CC(C)Oc1cc2ccccc2c(O[C@@H]2C[C@H]3C(=O)N[C@]4(C(=O)NS(=O)(=O)C5(C)CC5)C[C@H]4/C=C\CC[C@@H](C)C[C@@H](C)[C@H](NC(=O)OC(C)(C)C(F)(F)F)C(=O)N3C2)n1` [Compound 6104, 1,1,1-trifluoro-2-methylpropan-2-yl((2R,6S,7R,9R,13aS,14aR,16aS,Z)-2-((3-isopropoxyisoquinolin-1-yl)oxy)-7,9-dimethyl-14a-(((1-methylcyclopropyl)sulfonyl)carbamoyl)-5,16-dioxo-1,2,3,5,6,7,8,9,10,11,13a,14,14a,15,16,16a-hexadecahydrocyclopropa[e]pyrrolo[1,2-a][1,4]diazacyclopentadecin-6-yl)carbamate]: the pEC50 in assay [1] is 8.30 to 9.00; in assay [2] it was 9.00 to 9.29.

In the case of `CC(C)Oc1cc2ccccc2c(O[C@@H]2C[C@H]3C(=O)N[C@]4(C(=O)NS(=O)(=O)C5(C)CC5)C[C@H]4/C=C\CC[C@H](C)C[C@@H](C)[C@H](NC(=O)OC(C)(C)C(C)(F)F)C(=O)N3C2)n1` [Compound 6105, 3,3-difluoro-2-methylbutan-2-yl((2R,6S,7R,9S,13aS,14aR,16aS,Z)-2-((3-isopropoxyisoquinolin-1-yl)oxy)-7,9-dimethyl-14a-(((1-methylcyclopropyl)sulfonyl)carbamoyl)-5,16-dioxo-1,2,3,5,6,7,8,9,10,11,13a,14,14a,15,16,16a-hexadecahydrocyclopropa[e]pyrrolo[1,2-a][1,4]diazacyclopentadecin-6-yl)carbamate], the pEC50 in assay [1] was 7.46 to 8.30; in assay [2], 8.30 to 9.00.

Consider `CC(C)Oc1cc2ccccc2c(O[C@@H]2C[C@H]3C(=O)N[C@]4(C(=O)NS(=O)(=O)C5(C)CC5)C[C@H]4/C=C\CC[C@@H](C)C[C@@H](C)[C@H](NC(=O)OC(C)(C)C(C)(F)F)C(=O)N3C2)n1` [Compound 6106, 3,3-difluoro-2-methylbutan-2-yl((2R,6S,7R,9R,13aS,14aR,16aS,Z)-2-((3-isopropoxyisoquinolin-1-yl)oxy)-7,9-dimethyl-14a-(((1-methylcyclopropyl)sulfonyl)carbamoyl)-5,16-dioxo-1,2,3,5,6,7,8,9,10,11,13a,14,14a,15,16,16a-hexadecahydrocyclopropa[e]pyrrolo[1,2-a][1,4]diazacyclopentadecin-6-yl)carbamate], for which the pEC50 is 8.30 to 9.00 in assay [1] and 9.30 to 10.00 in assay [2].

With `CCOc1cc2ccccc2c(O[C@@H]2C[C@H]3C(=O)N[C@]4(C(=O)NS(=O)(=O)C5(CF)CC5)C[C@H]4/C=C\CC[C@@H](C)C[C@@H](C)[C@H](NC(=O)OC(C)(C)C)C(=O)N3C2)n1` [Compound 6108, tert-butyl ((2R,6S,7R,9R,13aS,14aR,16aS,Z)-2-((3-ethoxyisoquinolin-1-yl)oxy)-14a-(((1-(fluoromethyl)cyclopropyl)sulfonyl)carbamoyl)-7,9-dimethyl-5,16-dioxo-1,2,3,5,6,7,8,9,10,11,13a,14,14a,15,16,16a-hexadecahydrocyclopropa[e]pyrrolo[1,2-a][1,4]diazacyclopentadecin-6-yl)carbamate], the pEC50 in assay [1] is 9.00 to 9.29; in assay [2] it was 9.30 to 10.00.

As for `CC(C)Oc1cc2ccccc2c(O[C@@H]2C[C@H]3C(=O)N[C@]4(C(=O)NS(=O)(=O)C5(CF)CC5)C[C@H]4/C=C\CC[C@@H](C)C[C@@H](C)[C@H](NC(=O)OC(C)(C)C)C(=O)N3C2)n1` [Compound 6110, tert-butyl ((2R,6S,7R,9R,13aS,14aR,16aS,Z)-14a-(((1-(fluoromethyl)cyclopropyl)sulfonyl)carbamoyl)-2-((3-isopropoxyisoquinolin-1-yl)oxy)-7,9-dimethyl-5,16-dioxo-1,2,3,5,6,7,8,9,10,11,13a,14,14a,15,16,16a-hexadecahydrocyclopropa[e]pyrrolo[1,2-a][1,4]diazacyclopentadecin-6-yl)carbamate], the pEC50 in assay [1] is 8.30 to 9.00; in assay [2] it was 9.00 to 9.29.

In the case of `CCOc1cc2ccccc2c(O[C@@H]2C[C@H]3C(=O)N[C@]4(C(=O)NS(=O)(=O)C5(CF)CC5)C[C@H]4/C=C\CC[C@@H](C)C[C@@H](C)[C@H](NC(=O)OC(C)(C)C(F)(F)F)C(=O)N3C2)n1` [Compound 6112, 1,1,1-trifluoro-2-methylpropan-2-yl((2R,6S,7R,9R,13aS,14aR,16aS,Z)-2-((3-ethoxyisoquinolin-1-yl)oxy)-14a-(((1-(fluoromethyl)cyclopropyl)sulfonyl)carbamoyl)-7,9-dimethyl-5,16-dioxo-1,2,3,5,6,7,8,9,10,11,13a,14,14a,15,16,16a-hexadecahydrocyclopropa[e]pyrrolo[1,2-a][1,4]diazacyclopentadecin-6-yl)carbamate], the pEC50 in assay [1] was 8.30 to 9.00; in assay [2] it was 9.00 to 9.29.

The record behind these values is patent US9499550B2 (BRISTOL-MYERS SQUIBB COMPANY, priority 2012, dated 2016).
